From publication PMC9784969, “SARS-CoV-2 Inhibitors Identified by Phenotypic Analysis of a Collection of Viral RNA-Binding Molecules” (Pharmaceuticals, 2022)
Where two headings read alike, the source gives them in different places.

Experiments:
SARS-CoV-2 USA-WA1/2020 [1] = test: microbe, parasite or virus in culture; assay type: cell-based; details: read-out: SARS-CoV-2 EC50
[2] = system: subdomain IIB of the rev recognition element (RRE) of the HIV-1 genomic RNA; details: cited from earlier work
in vitro [3] = details: African green monkey, uninfected Vero E6 cells
HIV-1 = details: cited from earlier work
SARS-CoV-2 USA-WA1/2020 [4] = test: microbe, parasite or virus in culture; assay type: cell-based; details: read-out: SARS-CoV-2 EC50; remark: listed apart in the source
SCoV2 USA-WA1/2020 = assay type: cell-based; details: 293T-ACE2, MOI 2, 8-h single cycle
in vitro [5] = details: human, uninfected 293T-ACE2 cells
SCoV2 RNA elements = test: ligand-based 1H NMR (1D, CPMG, wLOGSY), six RNA elements compared; assay type: binding, SARS-CoV-2; details: CSP, LB, CPMG and wLOGSY perturbations; 300 µM compound
Source text: We first used ligand-based ^1H NMR experiments to analyze the interaction of the selected compounds with each of the six RNA elements specified above, including one-dimensional, Carr–Purcell–Meiboom–Gill (CPMG) and waterLOGSY (wLOGSY) experiments. These assays detect changes in the ^1H signals of the ligand upon RNA association (Figure 4A), and have been successfully used to evaluate small-molecule binding to RNA motifs, including elements of the SCoV2 genome.
Each ligand (at a concentration of 300 μM) was mixed with a smaller quantity of RNA in an aqueous solution containing 25 mM potassium phosphate (pH 6.2), 150 mM KCl, 3 mM MgCl2, and 10% D2O. RNA–ligand molar ratios of 1:50 and 1:100 were explored (with 6 and 3 μM RNA, respectively). […] The water signal was suppressed from one-dimensional experiments with a watergate sequence. The CPMG experiments were acquired with 100, 200, 300, and 400 ms relaxation delays before acquisition, and water suppression was achieved by presaturation. wLOGSY experiments employed a selective Gaussian 180° pulse at the water frequency and an NOE mixing time of 1.5 s and suppressed the water signal by excitation sculpting. All spectra were acquired in the absence and presence of RNA.
All ligand signals were individually analyzed. For clomiphene citrate, the signals corresponding to cis and trans forms were identified by comparing the spectrum of clomiphene citrate with those of the individual stereoisomers. In CPMG experiments, the binding of the compounds to the different RNA sequences was quantified as 100 minus the percentage of ligand signal area in the +RNA CPMG spectrum relative to the corresponding signal area in the -RNA CPMG spectrum. In wLOGSY experiments, binding was quantified with the LOGSY factor, or % of ligand signal in the difference spectrum between the +RNA and –RNA wLOGSY spectra, relative to the corresponding signal in the one-dimensional -RNA reference spectrum. In one-dimensional experiments, line broadening (LB) was quantified as explained for CPMG spectra.

[6] = Severe acute respiratory syndrome coronavirus 2, Vero C1008, 48 h, Vero E6 cells, MOI 0.025, two days
[7] = ref 5 (Table S1 list: Sedgwick, Ph.D. thesis 2018)
[8] = ref 2 (Table S1 list: Prado et al. 2018)
[9] = ref 4 (Table S1 list: Medina-Trillo et al. 2020)
[10] = Vero E6 cells, MOI 0.025, two days
[11] = ref 1 (Table S1 list: Prado et al. 2016)
[12] = Severe acute respiratory syndrome coronavirus 2, Vero C1008, 48 h
[13] = Severe acute respiratory syndrome coronavirus 2, 293T/ACE2, 48 h
[14] = ref 3 (Table S1 list: Simba-Lahuasi et al., Unpublished results)

COc1ccc(-c2ccc(-c3ccc(O)c(CCN)c3)c(C)c2)c(CCN)c1 [compound 1]
EC50 (SARS-CoV-2 USA-WA1/2020 [1]; [6]): > 20 µM
Previous target RNA binding [2, 7]: yes
CC50 at 2 days (in vitro [3]): > 20 µM

OC(CNCC1CCCO1)Cn1c2ccc(Br)cc2c2cc(Br)ccc21 (centres unmarked) [1b]
Previous target virus activity (HIV-1; [8]): yes
Previous target virus activity (HIV-1; [9]): no
Previous target RNA binding [2, 8]: yes
Previous target RNA binding [2, 9]: yes

CN(C)CCOc1ccc(C(=C(CCO)c2ccccc2)c2ccccc2)cc1 [βOH-tamoxifen]
EC50 (SARS-CoV-2 USA-WA1/2020 [1]; [6]): 5.4 µM
Previous target virus activity (HIV-1; ref Unpublished): yes
Previous target RNA binding ([2]; ref Unpublished): yes
CC50 at 2 days (in vitro [3]): 22.2 µM

CN(C)CCOc1cc2c(c3ccccc13)-c1ccccc1C2=O [1a]
EC50 (SARS-CoV-2 USA-WA1/2020 [1]; [10]): > 20 µM
Previous target virus activity (HIV-1; [8]): yes
Previous target virus activity (HIV-1; [9]): yes
Previous target RNA binding [2, 8]: yes
Previous target RNA binding [2, 9]: yes

O=C1c2c(O)ccc(O)c2C(=O)c2c(NCCNCCO)ccc(NCCNCCO)c21 [Mitoxantrone, reference compound]
EC50 (SARS-CoV-2 USA-WA1/2020 [1]; [6]): 2.4 µM
Previous target virus activity (HIV-1; [11]): yes
Previous target RNA binding [2, 11]: yes
CC50 at 2 days (in vitro [3]): 0.806 µM

CCC(CC)COC(=O)[C@H](C)N[P@](=O)(OC[C@H]1O[C@@](C#N)(c2ccc3c(N)ncnn23)[C@H](O)[C@@H]1O)Oc1ccccc1 [Remdesivir, reference compound]
EC50 (SARS-CoV-2 USA-WA1/2020 [1]; [12]): 0.428 µM
EC50 (SARS-CoV-2 USA-WA1/2020 [4]; [13]): 0.0104 µM
inhibition when added at +4 h (SCoV2 USA-WA1/2020): decreased
CC50 at 2 days (in vitro [3]): > 20 µM
CC50 at 2 days (in vitro [5]): > 2 µM

O=C(O)c1cn(C2CC2)c2cc(N3CCNCC3)c(F)cc2c1=O [Cyprofloxacine, reference compound]
EC50 (SARS-CoV-2 USA-WA1/2020 [1]; [6]): > 20 µM
Previous target virus activity (HIV-1; [11]): yes
Previous target RNA binding [2, 11]: yes

Trans-clomiphene
Previous target virus activity (HIV-1; ref Unpublished): yes
Previous target RNA binding ([2]; ref Unpublished): yes

Cis-clomiphene
RNA binding preference (SCoV2 RNA elements): bound RNA with stronger affinity than the trans form
Previous target virus activity (HIV-1; ref Unpublished): yes
Previous target RNA binding ([2]; ref Unpublished): yes

CCC(=C(c1ccccc1)c1ccc(OCCN(C)CCOc2ccc(C(=C(CC)c3ccccc3)c3ccccc3)cc2)cc1)c1ccccc1 [Tamoxifen dimer]
EC50 (SARS-CoV-2 USA-WA1/2020 [1]; [6]): > 20 µM
Previous target virus activity (HIV-1; ref Unpublished): no
Previous target RNA binding ([2]; ref Unpublished): yes
CC50 at 2 days (in vitro [3]): > 20 µM

Cc1cc(-c2cc(CCN)ccc2CCN)c(C)cc1-c1ccccc1CCN [compound 4]
EC50 (SARS-CoV-2 USA-WA1/2020 [1]; [6]): > 20 µM
Previous target virus activity (HIV-1; [9]): yes
Previous target RNA binding [2, 9]: yes
CC50 at 2 days (in vitro [3]): > 20 µM

COc1ccc(-c2cc(C)c(-c3cc(CCN)c(OC)cc3CCN)cc2C)cc1CCN [3a]
EC50 (SARS-CoV-2 USA-WA1/2020 [1]; [6]): > 20 µM
Previous target virus activity (HIV-1; [9]): yes
Previous target RNA binding [2, 9]: yes
CC50 at 2 days (in vitro [3]): > 20 µM

Cc1cc(-c2c(CCN)cccc2CCN)cc(C)c1-c1cc(CCN)c(Oc2ccccc2)c(CCN)c1 [compound 6]
EC50 (SARS-CoV-2 USA-WA1/2020 [1]; [6]): > 20 µM
Previous target virus activity (HIV-1; [7]): yes
Previous target RNA binding [2, 7]: yes
CC50 at 2 days (in vitro [3]): > 20 µM

Cc1cc(-c2c(CCN)cccc2CCN)cc(C)c1-c1cc(CCCN)c(O)c(CCCN)c1 [compound 11]
EC50 (SARS-CoV-2 USA-WA1/2020 [1]; [6]): > 20 µM
Previous target virus activity (HIV-1; [7]): yes
Previous target RNA binding [2, 7]: yes
CC50 at 2 days (in vitro [3]): > 20 µM

CC1CN(C(c2ccccc2)(c2ccccc2)c2ccccc2)CCN1 (centres unmarked) [Trityl-piperazine]
EC50 (SARS-CoV-2 USA-WA1/2020 [1]; [6]): 0.644 µM
EC50 (SARS-CoV-2 USA-WA1/2020 [4]; Severe acute respiratory syndrome coronavirus 2, 48 h, 293T-ACE2 cells, MOI 0.25, two days): 0.27 µM
Previous target virus activity (HIV-1; [14]): yes
Previous target RNA binding [2, 14]: yes
CC50 at 2 days (in vitro [3]): 2.22 µM
CC50 at 2 days (in vitro [5]): > 3.67 µM

CCN(CC)CCOc1ccc(C(O)(Cc2ccc(Cl)cc2)c2ccc(C)cc2)cc1 (centres unmarked) [Triparanol, reference compound]
EC50 (SARS-CoV-2 USA-WA1/2020 [1]; [6]): 0.811 µM
Previous target virus activity (HIV-1; [14]): yes
Previous target RNA binding [2, 14]: yes
CC50 at 2 days (in vitro [3]): > 20 µM

CCC(=C(c1ccc(OC)cc1)c1ccc(OC)cc1)c1cn(CC(O)CN(C)C)c2ccccc12 (centres unmarked) [Bisphenylindol]
EC50 (SARS-CoV-2 USA-WA1/2020 [1]; [6]): 2.1 µM
Previous target virus activity (HIV-1; [14]): yes
Previous target RNA binding [2, 14]: yes

Cc1cc(-c2c(CCNC(=N)N)cccc2CCNC(=N)N)cc(C)c1-c1cc(CCCNC(=N)N)cc(CCCNC(=N)N)c1 [compound 18]
EC50 (SARS-CoV-2 USA-WA1/2020 [1]; [6]): > 20 µM
Previous target virus activity (HIV-1; [7]): yes
Previous target RNA binding [2, 7]: yes
CC50 at 2 days (in vitro [3]): > 20 µM

Fc1nc(N2CCNCC2)c(F)c(Sc2ccc(Cl)cc2)c1F [2a]
EC50 (SARS-CoV-2 USA-WA1/2020 [1]; [12]): 6.24 µM
EC50 (SARS-CoV-2 USA-WA1/2020 [4]; [13]): 0.63 µM
Previous target virus activity (HIV-1; [8]): yes
Previous target RNA binding [2, 8]: yes
CC50 at 2 days (in vitro [3]): > 20 µM
CC50 at 2 days (in vitro [5]): 5.32 µM

CCC(=C(c1ccccc1)c1ccc(OCCN(C)C)cc1)c1ccc(O)cc1 [4'OH-tamoxifen]
EC50 (SARS-CoV-2 USA-WA1/2020 [1]; [6]): 0.74 µM
Previous target virus activity (HIV-1; ref Unpublished): yes
Previous target RNA binding ([2]; ref Unpublished): yes
CC50 at 2 days (in vitro [3]): 2.7 µM

C=C(C)Cn1c(NCCCn2ccnc2)nc2c1c(=O)[nH]c(=O)n2C [17a5]
EC50 (SARS-CoV-2 USA-WA1/2020 [1]; [6]): > 20 µM
Previous target virus activity (HIV-1; [8]): yes
Previous target RNA binding [2, 8]: yes
CC50 at 2 days (in vitro [3]): > 20 µM

CN1CCC(=C2c3ccccc3C=Cc3ccccc32)CC1 [Cyprohetadine, reference compound]
Previous target virus activity (HIV-1; [11]): yes
Previous target RNA binding [2, 11]: yes
CC50 at 2 days (in vitro [3]): > 20 µM

CCN(CC)CCNc1cc(-c2cccs2)nc2ccccc12 [1d]
EC50 (SARS-CoV-2 USA-WA1/2020 [1]; [6]): 6.64 µM
EC50 (SARS-CoV-2 USA-WA1/2020 [1]; [10]): 6.24 µM
Previous target virus activity (HIV-1; [8]): yes
Previous target RNA binding [2, 8]: yes
CC50 at 2 days (in vitro [5]): 7.5 µM
